# Key:
# Format in all cases: in vivo, Oriza sativa
# [1] = system: wild type plants (rice seedlings); assay: Germination of seeds on agar plates with or without brassinolide, wild type; details: 1 μM brassinolide on agar plates, observed 1 day after germination
# Experimental: (§1) Rice (Oriza sativa) seeds were soaked in distilled water and made to imbibe for 48 h at 30° C. After washing the seeds with distilled water several times, the seeds were germinated in a dark chamber at 30° C. for 8 days. Rice plants were grown in the field or in the greenhouse at 30° C. (day) and 24° C. (night).
# (§2) Next, seeds of the wild type and mutant plants were germinated on agar plates with or without 1 μM brassinolide. The characteristics of whole seedlings were observed 1 day after germination.
# [2] = system: d61-1 and d61-2 mutant seedlings; assay: Germination of seeds on agar plates with or without brassinolide, d61 mutants; details: 1 μM brassinolide on agar plates, observed 1 day after germination
# Experimental: as §1, §2
# [3] = system: wild type T65 plant; assay: Lamina joint test, wild type; details: wild type T65, first leaf, 10^−3 and 10^−2 μg/ml
# Description: (§3) The degree of bending between the leaf blade and leaf sheath in rice is well known to be sensitive to the concentration of brassinolide or its related compounds. This unusual character of rice leaf is the basis for a quantitative bioassay for brassinosteroids, known as the lamina joint test (Wada, Ketal. (1981) Plant and Cell Physiol. 22, 323–325), even though the biological function of endogenous brassinosteroids in monocotyledonous plants including rice remains unknown. If the mutants are less sensitive to brassinosteroids, the degree of bending between the leaf blade and sheath of the mutant plants will be less than that of the wild type plants.
# (§4) Lamina joints of first leave of wild type T65 plant (the background strain of the mutants), d61-1 mutant, and d61-2 mutant were tested with 10^−3 and 10^−2 μg/ml of brassinosteroids, respectively.
# [4] = system: d61-1 mutant and d61-2 mutant; assay: Lamina joint test, d61 mutants
# Description: as §3, §4
# [5] = system: OsBRI1 mRNA; assay: Effect of exogenous brassinolide on the level of OsBRI1 mRNA (RNA hybridization); details: light- and dark-grown seedlings, 0.9% agar plates with 1 μM brassinolide, six days
# Description: RNA was isolated from various rice tissues as described in literature (Chomczynski, P. and Sacchi, N.: Anal. Biochem. (1987) 162:156). Ten μg of total RNA were electrophoresed in a 1% agarose gel, then transferred to a Hybond N^+ membrane (Amersham), and analyzed by RNA gel blot hybridization. The present inventors used a partial cDNA fragment (Ser^740 to Asp^1116 corresponding to the kinase domain), as a probe which specifically hybridized to the genomic DNA fragment encoding OsBRI1. DNA hybridization analysis was performed with the same probe and hybridization conditions as described above.
# The present inventors also tested the effects of exogenously applied brassinolide and light on the level of OsBRI1 mRNA. Germinating seeds were placed on 0.9% agar plates with or without 1 μM brassinolide and grown for six days in the light or dark.
# [6] = system: d61 mutants; assay: Restoration of dwarfism of d61 mutants by application of brassinolide
smiles,measurement,setting,value
CC(C)[C@H](C)[C@@H](O)[C@H](O)[C@@H](C)[C@H]1CC[C@H]2[C@@H]3COC(=O)[C@H]4C[C@H](O)[C@H](O)C[C@]4(C)[C@H]3CC[C@]12C [brassinolide],"growth of seedlings (coleoptile, foliage leaves)",[1],elongated abnormally
same,root elongation,[1],inhibited
same,"growth of seedlings (coleoptile, foliage leaves)",[1]; listed as BL,induced abnormal growth
same,growth of seedlings,[2],normal growth patterns
same,growth of seedlings,[2]; listed as BL,not affected
same,degree of bending between leaf blade and leaf sheath,[3],even more bent
same,degree of bending between leaf blade and leaf sheath,"[4]; d61-1 and d61-2 mutants, first leaf, 10^−3 and 10^−2 μg/ml",degree of bending increased
same,degree of bending between leaf blade and leaf sheath,"[4]; d61-2 mutant, 10^−2 μg/ml brassinolide",bent at less than a right angle
same,level of OsBRI1 expression,[5],reduced level of OsBRI1 expression
same,restoration of the dwarfism of the d61 mutants,[6],could not be achieved

# From US7135625B2, “Gene concerning brassinosteroid-sensitivity of plants and utilization thereof” (National Institute of Agrobiological Sciences, priority 2000, dated 2006)
